Reference: patent US11667602B2, “Compounds and their use” (AstraZeneca AB, priority 2020, dated 2023)

Key:
[1] = Human Hepatocyte Stability (Test D); format: in vitro ADME; conditions: human, cryopreserved pooled human hepatocytes (LiverPool 10-Donor), geometric mean if run multiple times
How it was run: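 Pooled 10-donor cryopreserved human hepatocytes (≥80% viable) in L-15 medium at 0.25×10^6 cells per 0.25 mL well. Compound added from 100 μM acetonitrile solution; incubated at 37 °C with shaking, acetonitrile-quenched, LC-MS analysed. Clint (μL/min/10^6 cells) from ln % parent vs time slope; geometric mean of repeat runs.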

human RXFP1 = target: T1, human RXFP1 (Homo sapiens, UniProt Q9HBX9); experiment: RXFP1 Hu cAMP (Test A); format: cell-based; parameters: expressed in transfected cells; host or cells: Jump-In T-REx CHO-K1 cells (ThermoFisher), induced with 10 ng/ml doxycycline for 24 h; conditions: RXFP1 Hu cAMP; for EC50: read-out: Test A EC50
T1 sequence (Q9HBX9 1-757): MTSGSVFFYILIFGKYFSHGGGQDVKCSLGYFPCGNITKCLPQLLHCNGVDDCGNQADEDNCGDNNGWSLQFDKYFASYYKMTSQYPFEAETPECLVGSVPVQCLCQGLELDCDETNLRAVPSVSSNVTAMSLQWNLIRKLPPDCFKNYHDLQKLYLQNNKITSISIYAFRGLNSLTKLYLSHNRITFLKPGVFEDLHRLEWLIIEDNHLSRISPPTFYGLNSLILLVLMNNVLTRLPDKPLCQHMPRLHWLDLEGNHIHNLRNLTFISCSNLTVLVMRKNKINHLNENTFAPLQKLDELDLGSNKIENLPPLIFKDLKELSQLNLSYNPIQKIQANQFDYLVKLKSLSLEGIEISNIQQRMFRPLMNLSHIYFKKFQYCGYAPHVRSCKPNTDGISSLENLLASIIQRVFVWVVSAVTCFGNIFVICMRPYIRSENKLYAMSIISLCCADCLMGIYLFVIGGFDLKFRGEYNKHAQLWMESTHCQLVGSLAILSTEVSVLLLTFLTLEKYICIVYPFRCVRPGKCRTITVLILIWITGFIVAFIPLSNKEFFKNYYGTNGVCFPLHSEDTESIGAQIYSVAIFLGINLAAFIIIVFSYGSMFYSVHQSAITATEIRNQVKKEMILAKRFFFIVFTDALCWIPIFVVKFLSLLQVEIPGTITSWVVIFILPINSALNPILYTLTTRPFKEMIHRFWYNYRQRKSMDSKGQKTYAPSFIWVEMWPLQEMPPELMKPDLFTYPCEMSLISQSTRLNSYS
How it was run: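 Read-out is HTRF signal, inversely proportional to cAMP, converted to cAMP amount by standard curve. Stimulation occurred in inducible CHO-K1 cells expressing the human receptor with phosphodiesterases blocked by 0.5 mM IBMX.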

hepatocyte CLint at 1 µM [1] [µL/min/1e6 cells]	Test A Sinf (human RXFP1) [%]	EC50 (human RXFP1) [nM]	SMILES
12	98	140	COc1cc(F)c(-c2ccc(C(=O)O)cc2)cc1C(=O)N[C@H]1[C@@H](C(=O)Nc2cccc(S(=O)(=O)C(F)(F)F)c2)[C@@H]2C=C[C@H]1C2 (single isomer, unassigned) [Example 552]
14	109	5.3	COc1cc(F)c(O[C@H]2CC[C@@H](C(=O)O)CC2)cc1C(=O)N[C@@H]1[C@H]2CC[C@H](C2)[C@@H]1C(=O)Nc1ccc(F)c(S(F)(F)(F)(F)F)c1 [Example 433]
21	114	0.41	COc1cc(F)c(O[C@H]2CC[C@@](C)(C(=O)O)CC2)cc1C(=O)N[C@@H]1[C@H]2CC[C@H](C2)[C@@H]1C(=O)Nc1ccc(F)c(S(F)(F)(F)(F)F)c1 [Example 353]
15	108	< 2	COc1cc(F)c(O[C@H]2CC[C@@](C)(C(=O)O)CC2)cc1C(=O)N[C@@H]1[C@H]2CC[C@H](C2)[C@@H]1C(=O)Nc1cccc(S(=O)(=O)C(F)(F)F)c1 [Example 208, (1S,4s)-4-(2-Fluoro-4-methoxy-5-(((1S,2R,3S,4R)-3-((3-((trifluoromethyl)sulfonyl)phenyl)carbamoyl)bicyclo[2.2.1]heptan-2-yl)carbamoyl)phenoxy)-1-methylcyclohexane-1-carboxylic acid]
